As a reminder, the melting point is the temperature of the solid-liquid transition. By IC50 is commonly meant the concentration needed to halve the response being measured.

Each structure is given as a SMILES string. Where two headings read alike, the source gives them in different places. A value given as a limit tells only on which side of the number the result lay.

Data set [1] concerns HepG2 cell line. The data set can be described thus: In vitro cytotoxic activity, Sulfo-Rhodamine-B (SRB) assay. The class given is cell-based, human. To be noted: read-out: IC50 (μM) on HepG2 Cell Line.
Another data set concerns the target VEGFR-2 (Homo sapiens, UniProt P35968). The data set can be described thus: Biochemical kinase assay (Kinase-Glo Plus luminescence). (In general: In Kinase-Glo more light means more ATP remaining.)
In data set [2] the test system is HepG2 cell line. The arrangement: method as in PMID 28505536. Conditions: earlier 2-furylbenzimidazole, comparison value; cited from earlier work.
Setting [3] is: Homo sapiens, HepG2, 48 h, SRB assay, 48 h, mean of three independent experiments.
The mark [4] stands for this setting: SRB assay, 48 h, mean of three independent experiments.

VEGFR-2, sequence (P35968 20-1356): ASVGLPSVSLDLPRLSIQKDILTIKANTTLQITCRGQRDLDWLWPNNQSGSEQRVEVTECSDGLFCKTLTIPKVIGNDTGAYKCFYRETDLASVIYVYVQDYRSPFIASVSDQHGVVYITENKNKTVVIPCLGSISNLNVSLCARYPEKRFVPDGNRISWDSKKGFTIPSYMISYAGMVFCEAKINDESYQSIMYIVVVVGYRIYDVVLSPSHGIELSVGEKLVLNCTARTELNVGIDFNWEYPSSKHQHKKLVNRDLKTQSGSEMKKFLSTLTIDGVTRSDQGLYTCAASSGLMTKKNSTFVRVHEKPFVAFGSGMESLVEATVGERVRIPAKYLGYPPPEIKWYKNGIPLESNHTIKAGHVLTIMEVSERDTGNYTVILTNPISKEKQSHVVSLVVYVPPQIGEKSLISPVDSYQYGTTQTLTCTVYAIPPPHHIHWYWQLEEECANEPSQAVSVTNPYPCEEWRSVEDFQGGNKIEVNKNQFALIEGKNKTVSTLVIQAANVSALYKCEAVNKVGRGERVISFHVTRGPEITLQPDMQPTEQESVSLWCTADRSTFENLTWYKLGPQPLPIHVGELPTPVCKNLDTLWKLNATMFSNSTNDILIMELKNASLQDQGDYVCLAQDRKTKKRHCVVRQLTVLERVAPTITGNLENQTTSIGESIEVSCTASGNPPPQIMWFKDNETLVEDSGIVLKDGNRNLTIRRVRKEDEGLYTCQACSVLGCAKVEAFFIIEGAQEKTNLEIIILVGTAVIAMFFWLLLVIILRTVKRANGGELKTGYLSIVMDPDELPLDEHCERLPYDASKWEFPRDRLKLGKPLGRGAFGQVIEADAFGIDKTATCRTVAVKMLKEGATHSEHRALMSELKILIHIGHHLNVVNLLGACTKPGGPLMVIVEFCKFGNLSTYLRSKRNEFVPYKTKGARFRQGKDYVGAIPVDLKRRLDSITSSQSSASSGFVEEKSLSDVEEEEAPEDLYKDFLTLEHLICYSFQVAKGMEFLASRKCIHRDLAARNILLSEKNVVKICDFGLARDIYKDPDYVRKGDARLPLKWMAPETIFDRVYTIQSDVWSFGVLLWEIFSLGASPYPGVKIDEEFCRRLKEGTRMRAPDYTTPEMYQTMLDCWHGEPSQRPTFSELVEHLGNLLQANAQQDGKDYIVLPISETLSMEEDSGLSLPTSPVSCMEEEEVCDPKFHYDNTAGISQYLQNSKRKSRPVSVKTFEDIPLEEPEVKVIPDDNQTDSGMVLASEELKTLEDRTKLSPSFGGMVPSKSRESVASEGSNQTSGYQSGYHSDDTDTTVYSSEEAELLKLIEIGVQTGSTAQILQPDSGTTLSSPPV
Experimental for VEGFR-2: This assay was carried out using the VEGFR-2 kinase enzyme system or FGFR-1 kinase enzyme system and Kinase-Glo Plus luminescence kinase (Promega) kits according to the manufacturers´ protocols. This assay evaluated the activity of kinase by measuring the amount of ATP remaining in solution after a kinase reaction. The luminescent signal from the assay was related to the quantity of ATP available, which was inversely proportional to the amount of kinase activity. […] Subsequently, serial dilutions were carried out, and 5 µL of the dilution was added to a 50 µL reaction. The enzymatic reactions were performed at 30 °C for 45 minutes. The 50 µL reaction mixture contained 40 mM Tris, pH 7.4, 10 mM MgCl2, 0.1 mg/mL BSA, 1 mM DTT, 0.2 mg/ml Poly (Glu, Tyr) substrate, 10 μM ATP and protein. After the enzymatic reaction, 50 µL of Kinase-Glo Plus Luminescence kinase assay solution was added to each reaction, and the plates were incubated for 15 minutes at room temperature. The luminescence signal was measured using a Tecan–spark multimode microplate reader. The difference between luminescence intensities in the absence of Kinase (Lut) and in the presence of Kinase (Luc) was defined as 100% activity (Lut − Luc). Using a luminescence signal (Lu) in the presence of the compound, % activity was calculated as: % activity = {(Lut − Lu)/(Lut − Luc)}×100%, where Lu = the luminescence intensity in the presence of the compound.

The compound `CC(C)c1nc2ccccc2[nH]1` [Compound 4a, 2-Isopropyl-1H-benzo[d]imidazole] displayed a melting point of 233 to 235 °C. In addition, the IC50 with HepG2 cell line [1] (setting [3]) was > 200 µM.
As to `Cc1ccc(-c2nc3ccccc3[nH]2)o1` [Compound 4b, 2-(5-Methylfuran-2-yl)-1H-benzo[d]imidazole], the IC50 with HepG2 cell line [1] (setting [3]) turned out to be 103 µM.
The compound `CC(C)c1nc2ccccc2n1CC(=O)c1ccc(C#N)cc1` [Compound 6, 4-(2-(2-Isopropyl-1H-benzo[d]imidazol-1-yl)acetyl)benzonitrile] gave a melting point of 209 to 211 °C. In the data set with HepG2 cell line [1] (setting [3]), the IC50 came to 13.5 µM.
The matching figures for `COC(=O)Cn1c(C(C)C)nc2ccccc21` [Compound 8a, Methyl 2-(2-isopropyl-1H-benzo[d]imidazol-1-yl)acetate]: 93 to 95 °C and > 200 µM.
As for `COC(=O)Cn1c(-c2ccc(C)o2)nc2ccccc21` [Compound 8b, Methyl 2-(2-(5-methylfuran-2-yl)-1H-benzo[d]imidazol-1-yl)acetate], the IC50 in the data set with HepG2 cell line [1] (setting [3]) is > 150 µM.
The compound `CCOC(=O)Cn1c(C(C)C)nc2ccccc21` [Compound 8c, Ethyl 2-(2-isopropyl-1H-benzo[d]imidazol-1-yl)acetate] came in with a melting point of 103 to 105 °C. For the same compound, in the data set on HepG2 cell line [1] (setting [3]), the IC50 is > 200 µM.
For `CCOC(=O)Cn1c(-c2ccc(C)o2)nc2ccccc21` [Compound 8d], the IC50 with HepG2 cell line [1] (setting [3]) is > 150 µM.
In turn, `CC(C)c1nc2ccccc2n1CC(=O)O` [Compound 9a, 2-(2-Isopropyl-1H-benzo[d]imidazol-1-yl)acetic acid] returned a melting point of 238 to 240 °C. In addition, the IC50 in the data set with HepG2 cell line [1] (setting [3]) turned out to be 32.5 µM.
The matching figures for `CC(C)c1nc2ccccc2n1CC(=O)NN` [Compound 10a, 2-(2-Isopropyl-1H-benzo[d]imidazol-1-yl)acetohydrazide]: 243 to 245 °C and 301 µM.
For `CC(C)c1nc2ccccc2n1CC(=O)N/N=C/c1ccccc1Cl` [Compound 13a, (E)-N′-(2-Chlorobenzylidene)-2-(2-isopropyl-1H-benzo[d]imidazol-1-yl)acetohydrazide], in that order: 211 to 213 °C and 158 µM.
For `CC(C)c1nc2ccccc2n1CC(=O)N/N=C/c1cccc(O)c1` [Compound 13b, (E)-N′-(3-Hydroxybenzylidene)-2-(2-isopropyl-1H-benzo[d]imidazol-1-yl)acetohydrazide], in that order: 249 to 251 °C and 137 µM.
As for `CC(C)c1nc2ccccc2n1CC(=O)N/N=C/c1ccc(O)cc1` [Compound 13c, (E)-N′-(4-Hydroxybenzylidene)-2-(2-isopropyl-1H-benzo[d]imidazol-1-yl)acetohydrazide], the melting point fell in the range of 296 to 298 °C. Moreover, the IC50 with HepG2 cell line [1] (setting [3]) is 140 µM.
`COc1ccc(/C=N/NC(=O)Cn2c(C(C)C)nc3ccccc32)cc1` [Compound 13d, (E)-2-(2-Isopropyl-1H-benzo[d]imidazol-1-yl)-N′-(4-methoxybenzylidene)acetohydrazide] had a melting point of 190 to 192 °C. In addition, in the data set with HepG2 cell line [1] (setting [3]), the IC50 turned out to be 11.9 µM. On VEGFR-2, the IC50 came out at 0.09 ± 0.002 µM.
As to `CC(C)c1nc2ccccc2n1CC(=O)N/N=C/c1ccc(N(C)C)cc1` [Compound 13e, (E)-N′-(4-(Dimethylamino)benzylidene)-2-(2-isopropyl-1H-benzo[d]imidazol-1-yl)acetohydrazide], the melting point was 225 to 227 °C. Also, the IC50 in the data set with HepG2 cell line [1] (setting [3]) was determined as 87 µM.
Take `COc1ccc(OC)c(/C=N/NC(=O)Cn2c(C(C)C)nc3ccccc32)c1` [Compound 13f]: the melting point was in the range of 202 to 204 °C. Moreover, the IC50 with HepG2 cell line [1] (setting [3]) was 11.9 to 15.6 µM. In addition, the IC50 in the data set with HepG2 cell line [1] (setting [4]) is 16.7 µM. Further, on VEGFR-2, the IC50 stood at 0.4 ± 0.01 µM.
In turn, `COc1cc(/C=N/NC(=O)Cn2c(C(C)C)nc3ccccc32)ccc1O` [Compound 13g, (E)-N′-(4-Hydroxy-3-methoxybenzylidene)-2-(2-isopropyl-1H-benzo[d]imidazol-1-yl)acetohydrazide] came in with a melting point of 165 to 167 °C. For the same compound, the IC50 with HepG2 cell line [1] (setting [3]) stood at 13.9 µM.
`Cc1ccc(/C=N/NC(=O)Cn2c(C(C)C)nc3ccccc32)o1` [Compound 13h, (E)-2-(2-Isopropyl-1H-benzo[d]imidazol-1-yl)-N′-((5-methylfuran-2-yl)methylene)acetohydrazide]: in the data set on HepG2 cell line [1] (setting [3]), the half-inhibitory concentration (IC50) amounted to 59.9 µM.
Turning to `C/C(=N\NC(=O)Cn1c(C(C)C)nc2ccccc21)c1ccccc1C` [Compound 14b, (E)-2-(2-Isopropyl-1H-benzo[d]imidazol-1-yl)-N′-(1-(o-tolyl)ethylidene)acetohydrazide], the melting point lay in the range of 238 to 240 °C. In the data set with HepG2 cell line [1] (setting [3]), the IC50 was determined as 26.2 µM.
The matching figures for `C/C(=N\NC(=O)Cn1c(C(C)C)nc2ccccc21)c1ccc(Br)cc1` [Compound 14c, (E)-N′-(1-(4-Bromophenyl)ethylidene)-2-(2-isopropyl-1H-benzo[d]imidazol-1-yl)acetohydrazide]: 215 to 217 °C and 112 µM.
The matching figures for `C/C(=N\NC(=O)Cn1c(C(C)C)nc2ccccc21)c1ccc(Br)c([N+](=O)[O-])c1` [Compound 14d, (E)-N′-(1-(4-Bromo-3-nitrophenyl)ethylidene)-2-(2-isopropyl-1H-benzo[d]imidazol-1-yl)acetohydrazide]: 231 to 233 °C and 62 µM.
The matching figures for `COC(=O)COc1ccc(/C=N/NC(=O)Cn2c(C(C)C)nc3ccccc32)cc1OC` [Compound 19a, Methyl-(E)-2-(4-((2-(2-(2-isopropyl-1H-benzo[d]imidazol-1-yl)acetyl)hydrazono)methyl)-2-methoxyphenoxy)acetate]: 175 to 177 °C and 109 µM.
`COC(=O)COc1ccc(/C=N/NC(=O)Cn2c(-c3ccc(C)o3)nc3ccccc32)cc1OC` [Compound 19b, Methyl-(E)-2-(2-methoxy-4-((2-(2-(2-(5-methylfuran-2-yl)-1H-benzo[d]imidazol-1-yl)acetyl)hydrazono)methyl)phenoxy)acetate] showed a melting point of 150 to 152 °C. Besides, the IC50 in the data set with HepG2 cell line [1] (setting [3]) is 71.7 µM.
The matching figures for `CCOC(=O)COc1ccc(/C=N/NC(=O)Cn2c(C(C)C)nc3ccccc32)cc1OC` [Compound 19c, Ethyl-(E)-2-(4-((2-(2-(2-isopropyl-1H-benzo[d]imidazol-1-yl)acetyl)hydrazono)methyl)-2-methoxyphenoxy)acetate]: 93 to 95 °C and 133 µM.
The matching figures for `CCOC(=O)COc1ccc(/C=N/NC(=O)Cn2c(-c3ccc(C)o3)nc3ccccc32)cc1OC` [Compound 19d, Ethyl-(E)-2-(2-methoxy-4-((2-(2-(2-(5-methylfuran-2-yl)-1H-benzo[d]imidazol-1-yl)acetyl)hydrazono)methyl)phenoxy)acetate]: 136 to 138 °C and 114 µM.
`COc1cc(C=O)ccc1OCCOc1ccc(/C=N/NC(=O)Cn2c(C(C)C)nc3ccccc32)cc1OC` [Compound 22a, (E)-N′-(4-(2-(4-Formyl-2-methoxyphenoxy)ethoxy)-3-methoxybenzylidene)-2-(2-isopropyl-1H-benzo[d]imidazol-1-yl)acetohydrazide] had a melting point of 218 to 220 °C. In addition, the 50% inhibitory concentration (IC50) in the data set on HepG2 cell line [1] (setting [3]) was > 100 µM. Moreover, the IC50 in the data set on HepG2 cell line [1] (setting [4]) was found to be 123 µM.
For `COc1cc(C=O)ccc1OCCOc1ccc(/C=N/NC(=O)Cn2c(-c3ccc(C)o3)nc3ccccc32)cc1OC` [Compound 22b, (E)-N′-(4-(2-(4-Formyl-2-methoxyphenoxy)ethoxy)-3-methoxybenzylidene)-2-(2-(5-methylfuran-2-yl)-1H-benzo[d]imidazol-1-yl)acetohydrazide], in that order: 203 to 205 °C, > 100 µM and 107 µM.
For the compound `Cc1ccc(S(=O)(=O)NC(=O)NNC(=O)Cn2c(C(C)C)nc3ccccc32)cc1` [Compound 24a, 2-(2-(2-Isopropyl-1H-benzo[d]imidazol-1-yl)acetyl)-N-tosylhydrazine-1-carboxamide], the IC50 with HepG2 cell line [1] (setting [3]) came out at 80.7 µM.
`COc1ccc(NC(=S)NNC(=O)Cn2c(C(C)C)nc3ccccc32)cc1` [Compound 24b, 2-(2-(2-Isopropyl-1H-benzo[d]imidazol-1-yl)acetyl)-N-(4-methoxyphenyl)hydrazine-1-carbothioamide]: the melting point was 232 to 234 °C. The IC50 with HepG2 cell line [1] (setting [3]) came out at 15.9 µM.
The matching figures for `COc1ccc(NC(=S)NNC(=O)Cn2c(-c3ccc(C)o3)nc3ccccc32)cc1` [Compound 24c, N-(4-Methoxyphenyl)-2-(2-(2-(5-methylfuran-2-yl)-1H-benzo[d]imidazol-1-yl)acetyl)hydrazine-1-carbothioamide]: 189 to 191 °C and 8.73 µM.
On to `Cc1ccc(-c2nc3ccccc3n2CC(=O)N/N=C/c2ccccc2Cl)o1` [IX], for which, in the data set with HepG2 cell line [2], the IC50 was 22.6 µM.
`CNC(=O)c1cc(Oc2ccc(NC(=O)Nc3ccc(Cl)c(C(F)(F)F)c3)cc2)ccn1` [Sorafenib (I), sorafenib, reference compound]: the IC50 in the data set with HepG2 cell line [1] (Homo sapiens, HepG2, 48 h) was determined as 11 µM.

(Values after paper PMC7071059, “Targeting Receptor Tyrosine Kinase VEGFR-2 in Hepatocellular Cancer: Rational Design, Synthesis and Biological Evaluation of 1,2-Disubstituted Benzimidazoles” (Molecules, 2020).)
